# Activity calls are given as the source filed them. The calls are words filed in the database; no cut-off is given here.
# Columns and labels:
# MEF = test: Cytotoxicity against MEFs assessed as reduction in cell viability up to 100 uM after 48 to 96 hrs by MTT assay; type: cell-based; conditions: mouse
# MDA-MB-231 [1] = test: Cytotoxicity against human MDA-MB-231 cells assessed as reduction in cell viability after 48 hrs by MTT assay; type: functional, cell-based; conditions: MDA-MB-231, 48 h
# MCF7 [2] = test: Cytotoxicity against human MCF7 cells assessed as reduction in cell viability after 48 hrs by MTT assay; type: functional, cell-based; conditions: MCF7, 48 h
# MDA-MB-231 [3] = test: Cytotoxicity against human MDA-MB-231 cells assessed as reduction in cell viability after 96 hrs by MTT assay; type: functional, cell-based; conditions: MDA-MB-231, 96 h
# MCF7 [4] = test: Cytotoxicity against human MCF7 cells assessed as reduction in cell viability after 96 hrs by MTT assay; type: functional, cell-based; conditions: MCF7, 96 h
# MDA-MB-231 [5] = test: Cytotoxicity against human MDA-MB-231 cells assessed as induction of cell death at 0.5 to 25 uM after 48 hrs by MTT assay; type: functional, cell-based
# MCF7 [6] = test: Cytotoxicity against human MCF7 cells assessed as induction of cell death at 0.5 to 25 uM after 48 hrs by MTT assay; type: functional, cell-based
# MCF7 [7] = test: Induction of cell death in human MCF7 cells at 10 to 50 uM after 24 hrs using calcein AM and ethidium homodimer-1 by live/dead assay; type: functional
# MDA-MB-231 [8] = test: Induction of cell death in human MDA-MB-231 cells at 10 to 50 uM after 24 hrs using calcein AM and ethidium homodimer-1 by live/dead assay; type: functional, cell-based
# MCF7 [9] = test: Induction of cell death in human MCF7 cells at 10 uM after 24 hrs using calcein AM and ethidium homodimer-1 by live/dead assay; type: functional
# MDA-MB-231 [10] = test: Ratio of tamoxifen IC50 to compound IC50 for human MDA-MB-231 cells assessed as reduction in cell viability after 96 hrs by MTT assay; type: functional
# MCF7 [11] = test: Ratio of tamoxifen IC50 to compound IC50 for human MCF7 cells assessed as reduction in cell viability after 96 hrs by MTT assay; type: functional
# MDA-MB-231 [12] = test: Ratio of ospemifene IC50 to compound IC50 for human MDA-MB-231 cells assessed as reduction in cell viability after 96 hrs by MTT assay; type: functional
# MCF7 [13] = test: Ratio of ospemifene IC50 to compound IC50 for human MCF7 cells assessed as reduction in cell viability after 96 hrs by MTT assay; type: functional
# MDA-MB-231 [14] = test: Induction of cell death in human MDA-MB-231 cells at 10 uM after 24 hrs using calcein AM and ethidium homodimer-1 by live/dead assay; type: functional
SMILES,Activity (MEF),IC50 (MDA-MB-231 [1]) [µM],IC50 (MCF7 [2]) [µM],IC50 (MDA-MB-231 [3]) [µM],IC50 (MCF7 [4]) [µM],Activity (MDA-MB-231 [5]),Activity (MCF7 [6]),Activity (MCF7 [7]),Activity (MDA-MB-231 [8]),Activity (MCF7 [9]) [%],Ratio IC50 (MDA-MB-231 [10]),Ratio IC50 (MCF7 [11]),Ratio IC50 (MDA-MB-231 [12]),Ratio IC50 (MCF7 [13]),Activity (MDA-MB-231 [14]) [%]
CC/C(=C(\c1ccccc1)c1ccc(OCCN(C)C)cc1)c1ccccc1 [TAMOXIFEN],Non-toxic,,,,,,,,,,,,,,
NCCOc1ccc(/C(=C(/CCN)c2ccccc2)c2ccccc2)cc1,Non-toxic,17.1,23.6,13.4,11.2,Active,Active,Active,Active,70,>5,>5,5,5,70
[N-]=[N+]=NCCOc1ccc(/C(=C(/CCN=[N+]=[N-])c2ccccc2)c2ccccc2)cc1,,,,,,inactive,inactive,,,,,,,,
NCC/C(=C(\c1ccccc1)c1ccc(OCCO)cc1)c1ccccc1,Non-toxic,25,15.9,14.5,12.4,Active,Active,50%,Active,,>5,>5,5,5,
[N-]=[N+]=NCC/C(=C(\c1ccccc1)c1ccc(OCCO)cc1)c1ccccc1,,> 100,> 100,> 100,> 100,,Active,,,,,,,,
[N-]=[N+]=NCCOc1ccc(/C(=C(/CCCl)c2ccccc2)c2ccccc2)cc1,,,,,,inactive,inactive,,,,,,,,
OCCOc1ccc(/C(=C(/CCCl)c2ccccc2)c2ccccc2)cc1 [OSPEMIFENE],Non-toxic,> 100,> 100,> 100,55,,,,,,,,,,
O=C(NCC/C(=C(\c1ccccc1)c1ccc(OCCO)cc1)c1ccccc1)Oc1ccccc1,,> 100,76,62.3,50,Active,Active,,,,,,,,
CS(=O)(=O)OCCOc1ccc(/C(=C(/CCCl)c2ccccc2)c2ccccc2)cc1,,,,,,inactive,inactive,,,,,,,,

# From ChEMBL document CHEMBL3351602 (Eur J Med Chem, 2014)
